Measured values published in patent US8642647B2, “N1-benzo[1,3]dioxol-5-ylmethyl-N2-substituted biguanide derivative, preparation method thereof, and pharmaceutical composition containing same” (Hanall Biopharma Co., Ltd., priority 2008, dated 2014).

Assays:
Type in all cases: cell-based
HepG2 cells [1] = test: Measurement of triglyceride synthesis inhibitory ability; conditions: for Triglyceride (100 μM) aver.: 100 μM compound; for Triglyceride (100 μM) aver. / Triglyceride (500 μM) aver.: 24 hours, HepG2 cells, content of triglyceride formed, lower value = stronger inhibition; for Triglyceride (500 μM) aver.: 500 μM compound
Method: (§1) 2 mM metformin was used as a comparative compound for each of the plates (control group).
HepG2 cells (ATCC: American Type Culture Collection) were cultured in 1% serum-containing media (DMEM (Gibco), FBS (Gibco)) for 24 hours, and then treated with 100 μM or 500 μM of each of the compounds prepared in Examples for 24 hours. Then, the cells were disrupted with a lysis solution (0.1 M potassium phosphate, pH 7.4, 0.05 M NaCl, 5 mM cholic acid, 0.1% Triton X-100). To the disrupted cells was added the same volume of a reaction solution (0.76 U/ml of a glycerol kinase (Asan Pharmaceutical Co., Ltd.), […] of a peroxidase (Asan Pharmaceutical Co., Ltd.), 22.2 U/ml of a glycerol oxidizing agent (Asan Pharmaceutical Co., Ltd.), and 300 μM of Amplex red as a fluorescent factor (Molecular Probe)), which was allowed to react at 37° C. for 30 minutes. After completion of the reaction, the content of triglyceride formed in the cell lysates was measured at a wavelength of 560/590 nm (ex/em) using a fluorescence microscope.
A lower measurement value means an increased triglyceride synthesis inhibitory ability.

C2C12 cells = test: Measurement of glucose absorption ability; conditions: 100 μM compound versus 2 mM metformin
Method: as §1
C2C12 cells (ATCC: American Type Culture Collection), a muscle cell model, were induced to differentiate into muscle cells in 2% bovine fetal serum-containing media (DMEM (Gibco), FBS (Gibco)) for 6 days. The C2C12 cells which differentiated into muscle cells were transferred to serum-free low glucose media (DMEM (Gibco), FBS (Gibco)), treated with 100 μM of each of the compounds, and then cultured with 1 μM of insulin for 24 hours. After cultivation, the cells were treated with 1 μCi ^3H-deoxy-glucose (Amersham Pharmacia) and 10 μM deoxy-glucose (Sigma) at 37° C. for 15 minutes. The media were removed therefrom, and the cells were washed twice with PBS (phosphate buffered saline). The washed cells were treated with 0.1N NaOH and neutralized with 1N HCl. The content of glucose absorbed into the cells was measured with a liquid scintillation counter.
A higher measurement value means a stronger ability to reduce insulin resistance.

HepG2 cells [2] = test: Measurement of cholesterol synthesis inhibitory ability; conditions: 24 hours, HepG2 cells, content of cholesterol formed, lower value = stronger inhibition; for Cholesterol (100 μM) aver.: 100 μM compound; for Cholesterol (500 μM) aver.: 500 μM compound
Method: as §1
A cholesterol synthesis inhibitory ability, which is an important function of AMPK (AMP-activated protein kinase), was measured using HepG2 cells (ATCC: American Type Culture Collection) as a hepatic cell model according to the following procedure.
The hepatic cell model HepG2 cells were cultured in 1% serum-containing media (DMEM (Gibco), FBS (Gibco)) for 24 hours, and then treated with 100 μM or 500 μM of each of the compounds prepared in Examples for 24 hours. Then, the cells were disrupted with a lysis solution (0.1 M potassium phosphate, pH 7.4, 0.05 M NaCl, 5 mM cholic acid, 0.1% Triton X-100 (Sigma)). To the disrupted cells was added the same volume of a reaction solution (2 U/ml of a cholesterol oxidizing agent, 2 U/ml of a peroxidase, 0.2 U/ml of a cholesterol esterase, and 300 μM of Amplex red as a fluorescent factor (Molecular Probe)), which was allowed to react at 37° C. for 30 minutes. After completion of the reaction, the content of cholesterol formed in the cell lysates was measured at a wavelength of 560/590 nm (ex/em) using a fluorescence microscope.
A lower measurement value means an increased cholesterol synthesis inhibitory ability.

HepG2 cells [3] = test: Measurement of gluconeogenesis inhibitory ability; conditions: Homo sapiens, HepG2, 24 h, 100 μM compound, 24 hours, HepG2 cells; content of glucose formed from 14C-lactate; lower value = stronger inhibition; read-out: Gluconeogenesis inhibition (100 μM) aver.
Method: as §1
HepG2 cells (ATCC: American Type Culture Collection) were cultured in 10% serum-containing high glucose media, transferred to no serum-containing low glucose media (DMEM (Gibco), FBS (Gibco)), and then treated with 100 μM of each of the compounds for 24 hours. Then, the cells were treated with 0.5 μCi ^14C-lactate (Amersham Pharmacia) and 10 mM L-lactate (Sigma), and cultured for 4 hours. After cultivation, the media were removed therefrom, and the cells were washed with PBS, treated with 0.1N NaOH and kept at room temperature for 1 hour. Then, the cells were neutralized with 1N HCl, and the content of glucose formed in the cells was measured with a liquid scintillation counter.
A lower measurement value means an increased gluconeogenesis inhibitory ability.

Structure (SMILES) | Triglyceride (100 μM) aver. (HepG2 cells [1]) | Triglyceride (500 μM) aver. (HepG2 cells [1]) | glucose absorption effect better than that of the control group (C2C12 cells) | Cholesterol (100 μM) aver. (HepG2 cells [2]) | Cholesterol (500 μM) aver. (HepG2 cells [2]) | activity at 100 µM (HepG2 cells [3]) | effect in inhibiting triglyceride synthesis better than that of the control group (HepG2 cells [1]; 100 μM compound versus 2 mM metformin)
Cl.N=C(N)NC(=NCc1ccccc1)NCc1ccc2c(c1)OCO2 [Example 5, N1-benzo[1,3]dioxol-5-ylmethyl-N2-benzyl biguanide hydrochloride] | 102.8 | 15.7 | about 220 times | 30.3 | −8.28 | 108% | –
Cl.N=C(N)NC(=Nc1ccc(Oc2ccccc2)cc1)NCc1ccc2c(c1)OCO2 [Example 30, N1-benzo[1,3]dioxol-5-ylmethyl-N2-(4-phenoxyphenyl)biguanide hydrochloride] | 18.22 | 3.05 | – | 21.94 | 40.34 | 3.04% | –
COCCN=C(NCc1ccc2c(c1)OCO2)NC(=N)N.Cl [Example 31, N1-benzo[1,3]dioxol-5-ylmethyl-N2-(2-methoxyethyl)biguanide hydrochloride] | 74.51 | 73.00 | – | 84.45 | 69.16 | 100% | –
Cl.N=C(N)NC(=Nc1ccc(Br)cc1)NCc1ccc2c(c1)OCO2 [Example 32, N1-benzo[1,3]dioxol-5-ylmethyl-N2-(4-bromophenyl)biguanide hydrochloride] | 35.08 | 17.38 | – | 11.62 | 20.56 | 4.42% | –
CC(C)(C)c1ccc(N=C(NCc2ccc3c(c2)OCO3)NC(=N)N)cc1.Cl [Example 33, N1-benzo[1,3]dioxol-5-ylmethyl-N2-(4-t-butylphenyl)biguanide hydrochloride] | 27.40 | 7.08 | – | 20.42 | 30.52 | 2.35% | –
Cl.N=C(N)NC(=Nc1cc(Cl)cc(Cl)c1)NCc1ccc2c(c1)OCO2 [Example 34, N1-benzo[1,3]dioxol-5-ylmethyl-N2-(3,5-dichlorophenyl)biguanide hydrochloride] | 21.41 | 8.80 | – | 15.56 | 39.12 | 2.37% | –
Cl.N=C(N)NC(=NCc1ccc(Br)cc1)NCc1ccc2c(c1)OCO2 [Example 36, N1-benzo[1,3]dioxol-5-ylmethyl-N2-(4-bromobenzyl)biguanide hydrochloride] | 61.93 | 24.04 | – | 25.31 | 40.17 | 92.9% | –
COc1ccc(CN=C(NCc2ccc3c(c2)OCO3)NC(=N)N)cc1.Cl [Example 37, N1-benzo[1,3]dioxol-5-ylmethyl-N2-(4-methoxybenzyl)biguanide hydrochloride] | 62.82 | 58.60 | – | 60.36 | 32.20 | 104% | at least 20 times
Cl.N=C(N)NC(=NC1CC1)NCc1ccc2c(c1)OCO2 [Example 38, N1-benzo[1,3]dioxol-5-ylmethyl-N2-cyclopropyl biguanide hydrochloride] | 95.00 | 61.43 | – | 57.32 | 47.06 | 78.9% | –
CCCCN=C(NCc1ccc2c(c1)OCO2)NC(=N)N.Cl [Example 39, N1-benzo[1,3]dioxol-5-ylmethyl-N2-butyl biguanide hydrochloride] | 98.77 | 64.23 | – | 70.48 | 49.52 | 87.3% | –
CCCCCN=C(NCc1ccc2c(c1)OCO2)NC(=N)N.Cl [Example 40, N1-benzo[1,3]dioxol-5-ylmethyl-N2-pentyl biguanide hydrochloride] | 101.4 | 50.00 | – | 57.36 | 27.89 | 84.6% | –
Cl.N=C(N)NC(=Nc1cccc(Br)c1)NCc1ccc2c(c1)OCO2 [Example 41, N1-benzo[1,3]dioxol-5-ylmethyl-N2-(3-bromophenyl)biguanide hydrochloride] | 25.51 | 19.79 | – | 23.61 | 32.23 | 0% | –
Cc1cccc(N=C(NCc2ccc3c(c2)OCO3)NC(=N)N)c1.Cl [Example 42, N1-benzo[1,3]dioxol-5-ylmethyl-N2-(3-methylphenyl)biguanide hydrochloride] | 75.45 | 36.78 | – | 46.42 | 28.95 | 56.1% | –
Cl.N=C(N)NC(=NCc1ccc(F)cc1)NCc1ccc2c(c1)OCO2 [Example 43, N1-benzo[1,3]dioxol-5-ylmethyl-N2-(4-fluorobenzyl)biguanide hydrochloride] | 82.02 | 63.67 | – | 73.10 | 47.65 | 83.5% | –
Cl.N=C(N)NC(=NCc1ccc(F)c(F)c1)NCc1ccc2c(c1)OCO2 [Example 44, N1-benzo[1,3]dioxol-5-ylmethyl-N2-(3,4-difluorobenzyl)biguanide hydrochloride] | 78.42 | 56.79 | – | 74.32 | 49.84 | 103% | –
Cl.N=C(N)NC(=Nc1ccccc1)NCc1ccc2c(c1)OCO2 [Example 45, N1-benzo[1,3]dioxol-5-ylmethyl-N2-phenyl biguanide hydrochloride] | 96.12 | 35.45 | – | 77.21 | 23.24 | 117% | –
COCCOCCOCCN=C(NCc1ccc2c(c1)OCO2)NC(=N)N.Cl [Example 46, N1-benzo[1,3]dioxol-5-ylmethyl-N2-(2-(2-(2-methoxyethoxy)ethoxy)ethyl)biguanide hydrochloride] | 89.69 | 93.41 | – | 90.31 | 91.68 | 101% | –
